{"source": "patent US20230346995A1", "about": "“USE OF ELECTRIC CURRENT OR FIELD TO MANAGE RISK OF INFECTION BY ANTIMICROBIAL-RESISTANT MICROORGANISMS” (THE TRUSTEES OF INDIANA UNIVERSITY, priority 2020, published 2023)", "format_in_all_cases": "cell-based", "key": {"[1]": {"system": "ketoconazole-resistant Candida albicans ATCC 64124", "assay": "Planktonic growth, absorbance at 600 nm", "details": "YPD broth; ketoconazole 100 μg/ml; versus control", "method": "ATCC strain 64124 was maintained at 4° C. on yeast extract peptone dextrose (YPD) (BD™ Difco™) agar plates. Planktonic yeast cultures (seed inoculums) were initiated in 5 ml of YPD broth (BD™ Difco™) from a single colony of the yeast strain. Cells were incubated at 28° C., under shaker conditions (200 rpm) for 24 h, followed by initiation of master inoculums for respective experiments in 5 ml YPD broth (OD600nm ˜0.15). Yeast cells were incubated at 27° C. for all assays, except for hyphal transition experiments. For all assays, ketoconazole (Sigma Aldrich) was used at a final concentration of 100 μg/ml (dissolved in 100% methanol, stored at −20° C.).\nThe FDA-approved wireless electroceutical dressing (WED) Procellera (Ag—Zn dressing) (Vomaris Innovations Inc.) was the source of electric fields for treating C. albicans cells. This dressing has alternating circular regions of silver and zinc dots placed in proximity of 1 mm to each other generating electric fields in the range of 0.6-0.9 V (Banerjee et al., 2014; Banerjee et al., 2015). […] The effect of wound dressings on planktonic growth was assessed by culturing C. albicans in sterile 15 ml round bottom polypropylene tubes with 5 ml YPD broth in the presence of dressings. […] Post incubation for respective time intervals, 1 ml aliquots were taken from all groups and optical density (absorbance) was measured on a spectrophotometer at 600 nm."}, "[2]": {"system": "ketoconazole-resistant Candida albicans ATCC 64124", "assay": "Agar lawn assay with embedded dressings", "details": "in words", "experimental": "(§1) An agar lawn assay assessed fungicidal activity. Dressings (2′×2′) were moistened with sterile YPD broth and placed in empty Petri plates with the conducting side of the dressing facing up. One milliliter of log phase C. albicans cells (1×10^8 cells) was thoroughly mixed in sterile molten YPD agar (9 ml) and poured evenly in plates with dressings. […] Plate images were captured and the area of growth inhibition in these plates was calculated with ImageJ software. Metabolic state was assessed by FUN1 staining. […] Post treatments with electroceutical dressings, an aliquot of yeast cells (1×10^8) was taken and washed with 1 ml of 1X PBS followed by treatment with 100 μl FUN®1 (1:1000; freshly diluted in 1X PBS) for 40 min in dark condition. Cells were then washed once with 1 ml of 1X PBS followed by counter staining with 100 μl Calcofluor White (25 μg/ml) for 10 min in dark conditions. Post counter staining cells were again washed with 1 ml 1X PBS, an aliquot of cells was trapped between a cover glass and glass slide and observed at 63X. Images captured at this magnification were analyzed using ZEN blue software to calculate the ratio of red and green fluorescence intensities for two regions of interest (ROI) per image (10 ROIs per group per technical replicate). Three technical replicates were assayed for each experimental group; six biological replicates."}, "[3]": {"system": "ketoconazole-resistant Candida albicans ATCC 64124", "assay": "Metabolic state by FUN1 staining", "details": "in words", "experimental": "as §1"}, "[4]": {"system": "ketoconazole-resistant Candida albicans ATCC 64124", "assay": "Cell membrane potential changes, DiBAC4(3)/PI staining, flow cytometry", "details": "in words; flow cytometry and microscopy", "experimental": "Cell membrane potential changes were assessed by DiBAC4(3) staining. Candida albicans cells were cultured in liquid media (YPD broth), with or without dressings or ketoconazole. At respective time intervals, an aliquot of cells (1×10^8) was taken and washed with 1 ml 1X PBS followed by treatment with either 200 μl 10 μM DiBAC4(3) [Bis-(1,3-dibutylbarbituric acid) trimethine oxonol] (Anaspec) [for DiBAC4(3) single stained controls] or 10 μM propidium iodide (Sigma Aldrich) [for PI single stained controls] or a combination of both stains. Heat-killed cells (1×10^8; treated at 100° C. for 30 min) and cells treated with Amphotericin B (3 μg/ml) (Sigma\nAldrich) for 6 h were used as controls for dual stain positive and DiBAC4(3) only positive cells, respectively.\nPost staining, cells were washed with 1XPBS followed by flow cytometry (with FL1-FITC for DiBAC4(3) and FL2-PE filter for PI) (10,000 events per sample) to assess dual stain positive cells in control and test samples. For flow cytometry, control and treated cells stained only with single fluorescent stains were also run separately to check individual staining patterns. Flow cytometry data were analyzed using FlowJo software and graphically represented. Scatter plots with ratio of fluorescence intensities through FL1-FITC filter and FL2-PE filter were plotted to understand cell membrane depolarization mechanism in treated cells. […]"}, "[5]": {"system": "ketoconazole-resistant Candida albicans ATCC 64124", "assay": "Ultrastructure analysis (TEM) for cell wall thickness", "details": "after 24 h; compared to control cells", "method": "Ultrastructure analysis was performed as follows. After 24 h of respective treatments in YPD broth, C. albicans cells were initially fixed overnight with 500 μl 3% glutaraldehyde/0.1 M phosphate buffer; the fixative was changed to same fixative with 0.15% tannic acid for one hour. After three rinses in buffer, the specimens were post-fixed with 1% osmium tetroxide/0.1 M phosphate buffer for one hour and then rinsed multiple times with distilled water, before en bloc staining with 1% uranyl acetate in distilled water for one hour. After multiple rinses in distilled water, standard dehydration followed through a range of 70-100% ethanol, then infiltration with acetone, to 50:50 acetone and embedding resin for 48 hours. Specimens were then embedded with 100% resin (Embed 812, Electron Microscopy Sciences, Hatfield, PA) and polymerized overnight. Sections were cut, 80-85 nm and placed on copper mesh grids and viewed on Transmission Electron Microscope (TEM) (ThermoFisher, Tecnai Spirit, Hillsoboro OR) and images taken with CCD camera (Advanced Microscopy Techniques Danvers MA). Analysis of cell wall thickness was done with TEM images using ImageJ software."}, "[6]": {"system": "ketoconazole-resistant Candida albicans ATCC 64124", "assay": "Semi-quantitative analysis of cell wall carbohydrates chitin, beta glucan, mannan", "details": "24 h treatment", "method": "Semi-quantitative analysis was performed for cell wall carbohydrates chitin, beta glucan, and mannan. After 24 h treatment, with dressings alone or in combination with ketoconazole, 1 ml yeast cells were washed once with 1 ml 1X PBS followed by chitin staining with Calcofluor White (Sigma Aldrich) (25 μg/ml) for 10 min; beta glucan staining with Aniline Blue (Anaspec) (0.05%) for 15 min; mannan staining with Concanavalin A-Texas Red conjugate (Life Technologies) (25 μg/ml) for 40 min. All stainings were performed under dark condition. Post-staining, cells were washed once with 1 ml 1X PBS and observed under 63X magnification. Microscopic images were used for measuring fluorescence intensities using ZEN blue software."}, "[7]": {"system": "ketoconazole-resistant Candida albicans ATCC 64124", "assay": "In vitro yeast to hyphae transition assay", "details": "after 2 h incubation in hyphae-inducing medium", "method": "Transition of C. albicans from yeast form to hyphal form was studied with hyphae inducing conditions (YPD broth with 10% fetal bovine serum and incubation at 37° C., static condition). Cells were cultured in 5 ml hyphae-inducing medium, with or without dressings or ketoconazole. An aliquot of cells (1 ml) was taken from all treatment groups at 6 h and 24 h. Hyphal induction and elongation was monitored microscopically (63X) and imaged at 6 h and 24 h. For hyphal length measurements, aliquots were taken after 2 h in hyphae-inducing medium and images were captured at 20X magnification. Hyphal lengths were measured from these images using Accuview software (50 measurements per experimental group, six biological replicates)."}, "[8]": {"system": "ketoconazole-resistant Candida albicans ATCC 64124", "assay": "Efflux pump activity by Nile Red accumulation assay", "details": "within 30 min to 3 h of treatment; flow cytometry", "method": "Three technical replicates were assayed for each experimental group; six biological replicates."}}}
{"smiles": "CC(=O)N1CCN(c2ccc(OCC3COC(Cn4ccnc4)(c4ccc(Cl)cc4Cl)O3)cc2)CC1", "note": "(centres unmarked) [ketoconazole]", "values": [{"measurement": "planktonic growth measured by absorbance at 600 nm", "setting": "[1]", "value": "almost equivalent"}, {"measurement": "yeast growth in agar lawn assay", "setting": "[2]", "value": "reduction in growth"}, {"measurement": "FUN1 staining outcome (metabolic state, plasma membrane integrity)", "setting": "[3]", "value": "distinct intravacuolar structures"}, {"measurement": "effect on cell membrane depolarization / damage", "setting": "[4]", "value": "did not have any acute or prolonged effect"}, {"measurement": "change in cell wall thickness", "setting": "[5]", "value": "thick cell walls"}, {"measurement": "chitin content (Calcofluor white staining)", "setting": "[6]", "value": "increased chitin staining profile"}, {"measurement": "hyphal length measurements", "setting": "[7]", "value": "pseudohyphae formed"}, {"measurement": "Nile red accumulation / efflux pump activity", "setting": "[8]", "value": "increased efflux pump activity"}]}
